# Source: patent publication US20120004405A1, “COMPOUNDS HAVING ACTIVITY IN CORRECTING MUTANT CFTR CELLULAR PROCESSING” (priority 2008, published 2012)
# Entries after “also recorded” stand apart in the source; their conditions may differ.
# Columns and labels:
# ΔF508-CFTR [1] = biological target: T1, ΔF508-CFTR (Homo sapiens, UniProt P13569, DEL508-508); experiment: Iodide efflux from ΔF508-CFTR epithelial cells; format: cell-based; details: for iodide efflux from ΔF508-CFTR epithelial cells: iodide-loaded cells, compound added at time point 0, iodide sensitive electrode
# T1 construct: Human epithelial cells containing wildtype (A) or ΔF508-CFTR (B); endogenous in cells; host or cells: CFBE14o- human epithelial cells (provided by Dr. D. C. Gruenert)
# T1 sequence (P13569 with tags, fused parts or gaps DEL508-508): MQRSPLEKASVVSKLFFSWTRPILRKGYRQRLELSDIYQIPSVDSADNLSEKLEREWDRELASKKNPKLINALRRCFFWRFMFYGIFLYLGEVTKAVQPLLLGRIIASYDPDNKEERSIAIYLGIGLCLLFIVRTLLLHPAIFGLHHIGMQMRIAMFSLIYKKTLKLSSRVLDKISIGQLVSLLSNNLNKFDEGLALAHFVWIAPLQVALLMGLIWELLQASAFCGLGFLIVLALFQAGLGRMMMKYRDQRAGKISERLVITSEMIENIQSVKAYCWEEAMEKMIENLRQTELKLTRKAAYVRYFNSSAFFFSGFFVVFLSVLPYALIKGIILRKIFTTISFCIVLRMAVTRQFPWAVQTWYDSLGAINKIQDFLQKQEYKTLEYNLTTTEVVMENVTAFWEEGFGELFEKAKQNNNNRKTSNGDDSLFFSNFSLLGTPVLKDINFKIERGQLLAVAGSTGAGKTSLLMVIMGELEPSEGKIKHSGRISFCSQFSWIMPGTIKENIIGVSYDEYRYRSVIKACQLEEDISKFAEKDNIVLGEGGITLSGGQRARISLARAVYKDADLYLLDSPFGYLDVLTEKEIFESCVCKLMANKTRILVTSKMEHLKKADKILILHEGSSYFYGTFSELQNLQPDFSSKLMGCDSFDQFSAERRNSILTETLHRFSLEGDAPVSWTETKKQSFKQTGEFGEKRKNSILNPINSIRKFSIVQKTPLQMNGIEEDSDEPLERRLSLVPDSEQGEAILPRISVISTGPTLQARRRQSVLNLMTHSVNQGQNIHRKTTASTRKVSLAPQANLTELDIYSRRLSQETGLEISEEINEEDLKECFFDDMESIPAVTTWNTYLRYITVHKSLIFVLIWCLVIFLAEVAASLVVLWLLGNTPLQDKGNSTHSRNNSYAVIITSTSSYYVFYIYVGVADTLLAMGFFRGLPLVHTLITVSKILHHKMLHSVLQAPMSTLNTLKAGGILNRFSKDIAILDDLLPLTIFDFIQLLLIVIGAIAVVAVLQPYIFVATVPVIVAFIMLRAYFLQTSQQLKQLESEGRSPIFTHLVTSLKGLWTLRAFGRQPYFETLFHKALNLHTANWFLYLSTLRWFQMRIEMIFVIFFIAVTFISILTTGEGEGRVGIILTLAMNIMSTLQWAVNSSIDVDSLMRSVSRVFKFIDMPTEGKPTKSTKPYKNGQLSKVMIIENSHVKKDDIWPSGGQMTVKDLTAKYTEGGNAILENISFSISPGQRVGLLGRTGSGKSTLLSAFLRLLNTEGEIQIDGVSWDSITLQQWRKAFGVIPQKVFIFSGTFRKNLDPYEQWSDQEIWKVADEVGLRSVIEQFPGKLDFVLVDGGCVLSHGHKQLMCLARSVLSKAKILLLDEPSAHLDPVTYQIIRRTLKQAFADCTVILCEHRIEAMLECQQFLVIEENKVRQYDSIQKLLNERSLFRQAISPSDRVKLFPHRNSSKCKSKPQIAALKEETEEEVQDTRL
# Protocol: Iodide efflux experiments were performed as described. Briefly, Cells (80-90% confluent) were incubated for 1 h in a loading buffer containing 136 mM NaI, 3 mM KNO3, 2 mM Ca(NO3)2, 11 mM glucose, and 20 mM Hepes, adjusted to pH 7.4 with NaOH. To remove extracellular iodide, cells were thoroughly washed with efflux buffer (136 mM NaNO3 replacing 136 mM NaI in the loading buffer) and then equilibrated in 2.5 ml efflux buffer for 1 min. The efflux buffer was changed at 1 min intervals over the duration of the experiment. Four minutes after anion substitution, cells were exposed to compound 1D. The amount of iodide in each 2.5 ml sample of efflux buffer was determined using an iodide-selective electrode (HNU Systems Ltd, Warrington, UK). Cells were loaded and experiments performed at room temperature.
# [2] = system: mutant CFBE14o- cells (ΔF508-CFTR); experiment: Transepithelial resistance of mutant CFBE14o- epithelial cells; format: cell-based, human
# Protocol: (§1) Human epithelial cells containing wildtype CFTR (16HBE14o-) and the mutant cell line CFBE14o- were kindly provided by Dr. D. C. Gruenert. They were grown in suspension culture in Dulbeccós medium supplemented with streptomycin/penicillin (100 units of each/ml) and 10% foetal calf serum.
# A cell monolayer on a thin filter membrane (growth area, 4.2 cm2; pore diameter, 0.4 μm; thickness, 20 μm; Falcon, Heidelberg, Germany) served as a test barrier for the invasive capabilities of malignant cells. When confluent, these cells from a tight epithelial sheet with a high trans-epithelial electrical resistance (TEER), which was measured continuously using a STX-2 electrode (WPI, Sarasota, USA). Permeabilization of the epithelial cell layer (MDCK-C7 cells) due to the invasive activity of the melanoma cells can be determined by trans-epithelial electrical resistance (TEER) measurements, as previously reported [24;25].
# [3] = system: wildtype HBE14o- cells (normal CFTR); experiment: Transepithelial resistance of wildtype HBE14o- epithelial cells; format: cell-based, human
# hyaluronan exporter MRP5 = biological target: T2, hyaluronan exporter MRP5 (Homo sapiens, UniProt O15440); experiment: Determination of hyaluronan export from human fibroblasts (ELISA of culture medium); format: cell-based; details: incubated two days with increasing concentrations; hyaluronan in culture supernatant
# T2 construct: tested on human fibroblasts cultures for their influence on hyaluronan exporter MRP5; endogenous in cells; host or cells: human fibroblast cultures
# T2 sequence (O15440 whole entry): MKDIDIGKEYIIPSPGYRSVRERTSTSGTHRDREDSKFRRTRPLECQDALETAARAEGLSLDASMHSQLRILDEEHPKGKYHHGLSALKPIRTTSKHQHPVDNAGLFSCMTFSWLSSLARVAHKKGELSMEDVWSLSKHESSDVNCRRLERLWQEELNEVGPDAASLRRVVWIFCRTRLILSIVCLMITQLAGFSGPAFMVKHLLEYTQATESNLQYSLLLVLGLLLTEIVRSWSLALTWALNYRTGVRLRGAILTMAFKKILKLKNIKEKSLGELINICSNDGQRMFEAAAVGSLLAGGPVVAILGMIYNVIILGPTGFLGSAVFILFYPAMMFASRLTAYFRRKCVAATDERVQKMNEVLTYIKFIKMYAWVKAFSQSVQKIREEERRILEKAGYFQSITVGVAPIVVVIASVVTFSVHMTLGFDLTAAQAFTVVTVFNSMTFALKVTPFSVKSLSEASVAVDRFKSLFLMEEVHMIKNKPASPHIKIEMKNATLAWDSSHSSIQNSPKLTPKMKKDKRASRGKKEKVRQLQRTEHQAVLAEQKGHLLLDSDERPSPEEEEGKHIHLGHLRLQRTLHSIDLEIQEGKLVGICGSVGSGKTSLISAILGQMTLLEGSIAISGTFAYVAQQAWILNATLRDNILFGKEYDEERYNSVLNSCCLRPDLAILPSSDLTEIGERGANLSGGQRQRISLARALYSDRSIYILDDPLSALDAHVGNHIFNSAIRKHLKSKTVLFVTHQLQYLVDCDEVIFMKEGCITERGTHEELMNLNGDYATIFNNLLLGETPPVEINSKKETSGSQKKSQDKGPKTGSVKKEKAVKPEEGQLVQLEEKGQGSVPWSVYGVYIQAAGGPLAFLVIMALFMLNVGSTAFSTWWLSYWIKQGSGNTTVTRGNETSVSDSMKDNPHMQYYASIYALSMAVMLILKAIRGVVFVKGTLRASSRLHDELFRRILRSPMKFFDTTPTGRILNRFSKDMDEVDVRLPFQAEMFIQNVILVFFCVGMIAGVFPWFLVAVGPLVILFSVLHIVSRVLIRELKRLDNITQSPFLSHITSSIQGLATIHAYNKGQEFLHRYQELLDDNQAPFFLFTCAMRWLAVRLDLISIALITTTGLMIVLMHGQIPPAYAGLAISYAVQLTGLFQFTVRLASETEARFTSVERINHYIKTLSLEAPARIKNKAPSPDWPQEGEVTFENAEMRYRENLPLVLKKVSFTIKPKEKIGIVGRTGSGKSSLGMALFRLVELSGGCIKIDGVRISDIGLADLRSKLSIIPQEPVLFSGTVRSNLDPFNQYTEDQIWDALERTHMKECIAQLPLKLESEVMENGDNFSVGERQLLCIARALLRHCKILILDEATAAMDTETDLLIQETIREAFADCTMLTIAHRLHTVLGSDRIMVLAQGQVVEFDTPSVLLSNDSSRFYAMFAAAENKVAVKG
# Protocol: (§2) The cells were incubated for 24 hours at 37° C., the media were replaced with fresh media and after additional 24 hours aliquots (5 and 20 μl) of the culture medium were used for measurement of the hyaluronan concentration in the cell culture medium by an ELISA. The wells of a 96 well Covalink-NH-microtiter plate (NUNC) were coated with 100 μl of a mixture of […] of hyaluronan (Healon®), 9.2 μg/ml of N-Hydroxysuccin-imide-3-sulfonic acid and 615 μl/ml of 1-ethyl-3-(3-dimethylaminopropyl)-carbodiimide for 2 hours at room temperature and overnight at 4° C. The wells were washed three times with 2 M NaCl, 41 mM MgSO4, 0.05% Tween-20 in 50 mM phosphate buffered saline pH 7.2 (buffer A) and once with 2 M NaCl, 41 mM MgSO4, in phosphate buffered saline pH 7.2. Additional binding sites were blocked by incubation with 300 μl of 0.5% bovine serum albumin in phosphate buffered saline for 30 min at 37° C. Calibration of the assay was performed with standard concentrations of hyaluronan ranging from 15 ng/ml to 6000 ng/ml in equal volumes of culture medium as used for measurement of the cellular supernatants. […] The adsorption was read at 490 nm. The concentrations in the samples were calculated from a logarithmic regression curve of the hyaluronan standard solutions.
# [4] = Alamarblue cytotoxicity assay; format: cell-based; details: up to concentrations of 400 μM; data not shown
# Protocol: In a preferred embodiment, the present invention relates to compounds 1B, 1C, 1D 1F and 1G. […] Compound 1D is particularly preferred.
# The cytotoxicity of the drugs was measured as described.
# wildtype CFTR = biological target: T3, wildtype CFTR (Homo sapiens, UniProt P13569); experiment: Western blotting of cell surface expressed CFTR, wildtype epithelial cells; format: cell-based; details: increasing concentration of compound
# T3 construct: Human epithelial cells containing wildtype CFTR (16HBE14o-); endogenous in cells; host or cells: 16HBE14o- human epithelial cells (provided by Dr. D. C. Gruenert)
# T3 sequence (P13569 whole entry): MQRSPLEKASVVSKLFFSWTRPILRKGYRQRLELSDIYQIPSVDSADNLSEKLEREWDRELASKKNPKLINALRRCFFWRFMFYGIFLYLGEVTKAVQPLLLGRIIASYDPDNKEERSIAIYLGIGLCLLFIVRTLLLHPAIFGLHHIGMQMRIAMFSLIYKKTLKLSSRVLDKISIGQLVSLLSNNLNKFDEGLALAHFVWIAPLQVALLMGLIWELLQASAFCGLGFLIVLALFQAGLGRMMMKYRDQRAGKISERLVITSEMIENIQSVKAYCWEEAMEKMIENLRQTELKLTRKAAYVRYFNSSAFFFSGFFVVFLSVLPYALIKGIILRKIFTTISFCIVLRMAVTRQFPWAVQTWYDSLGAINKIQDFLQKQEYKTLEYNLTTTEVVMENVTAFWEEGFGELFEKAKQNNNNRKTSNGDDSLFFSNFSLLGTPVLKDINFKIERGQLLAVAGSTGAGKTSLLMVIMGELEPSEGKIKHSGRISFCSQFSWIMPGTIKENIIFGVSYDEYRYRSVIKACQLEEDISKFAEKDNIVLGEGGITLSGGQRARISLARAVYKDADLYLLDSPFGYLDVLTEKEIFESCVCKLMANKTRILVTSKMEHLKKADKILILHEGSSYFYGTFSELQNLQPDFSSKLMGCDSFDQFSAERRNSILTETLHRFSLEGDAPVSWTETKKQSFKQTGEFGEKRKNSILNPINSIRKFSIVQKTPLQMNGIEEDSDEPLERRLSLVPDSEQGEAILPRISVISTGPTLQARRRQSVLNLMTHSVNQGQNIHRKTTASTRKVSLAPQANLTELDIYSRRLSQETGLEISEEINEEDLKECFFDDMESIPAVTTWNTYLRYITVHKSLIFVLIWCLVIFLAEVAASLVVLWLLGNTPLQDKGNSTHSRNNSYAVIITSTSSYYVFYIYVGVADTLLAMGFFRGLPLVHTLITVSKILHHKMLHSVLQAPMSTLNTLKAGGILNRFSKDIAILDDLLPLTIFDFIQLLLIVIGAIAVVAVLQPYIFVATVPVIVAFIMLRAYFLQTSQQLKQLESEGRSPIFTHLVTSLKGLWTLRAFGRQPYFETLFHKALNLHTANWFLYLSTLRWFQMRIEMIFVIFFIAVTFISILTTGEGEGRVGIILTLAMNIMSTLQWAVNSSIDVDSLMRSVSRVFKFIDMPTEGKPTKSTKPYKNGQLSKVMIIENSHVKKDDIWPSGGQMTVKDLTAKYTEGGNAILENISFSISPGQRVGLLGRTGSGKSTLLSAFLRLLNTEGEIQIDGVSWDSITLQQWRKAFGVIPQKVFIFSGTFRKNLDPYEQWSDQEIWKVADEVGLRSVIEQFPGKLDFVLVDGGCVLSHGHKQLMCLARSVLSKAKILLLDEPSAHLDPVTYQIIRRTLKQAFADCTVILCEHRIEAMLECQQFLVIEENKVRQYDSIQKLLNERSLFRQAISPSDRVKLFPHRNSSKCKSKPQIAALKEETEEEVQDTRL
# Protocol: as §1
# (§3) The cell pellets were solubilized by vortexing in buffer (Tris-HCl 0.06 M; 2% SDS, 10% glycerol, 0.1M dithiothreitol, 0.1% bromophenol-blue and the protease inhibitor cocktail, pH 6.8). Following centrifugation (2 min, 8.000 g) samples of the supernatant were separated on 10% poly-acrylamide slabgels. Proteins were subsequently electroblotted onto nitrocellulose paper in 0.025 M Tris, 0.192 M glycine, 20% methanol. The blots were incubated at 4° C. with 0.02M Tris-HCl, 0.15M NaCl, 0.1% Tween20, pH7.5 followed by overnight incubation at 4° C. with a 1:500 dilution of primary anti-CFTR antibody in 0.02M Tris-HCl, 0.15M NaCl, 0.1% Tween20, pH7.5. Blots were washed three times, incubated with peroxidase-conjugated anti-rabbit IgG for 2 h, and washed four times. Peroxidase activity was detected with […] reagent (ECL kit; Amersham, Braunschweig, Germany) on X-ray film.
# nasal epithelium = experiment: Transepithelial nasal resistance measured on the inventor; format: in vivo; details: human
# Protocol: The effect of compound 1D was evaluated on the inventor of the present application by measurement of the transepithelial nasal resistance. This is a standard protocol for testing pharmaceutically active compounds on humans, (http://central.igc.gulbenkian.pt/cftr/vr/e/schuler_basic_protocol_for_measurement_of_transepithelial_nasal_potential_difference.pdf) (see also the results of FIG. 9).
# The nasal epithelium was equilibrated with isotonic (0.9%) NaCl, 2 mM CaCl2. […] To determine the maximal possible potential differences in this experiment, the solution was changed to isotonic NaCl, 2 mM CaCl2 containing 10 μM amiloride that is known to close Na+ channels. […] After equilibration, the solution was changed to low salt with 0.09% NaCl, 0.2 mM CaCl2 containing 10 μM isoprenalol.
# ΔF508-CFTR [5] = biological target: T1, ΔF508-CFTR; experiment: Western blotting of cell surface expressed CFTR, ΔF508-CFTR epithelial cells; format: cell-based
# Protocol: as §1, §3
# CFTR = biological target: T4, CFTR (Mus musculus, UniProt P26361); experiment: Hyaluronan export through CFTR in a mouse fibroblasts cell line; format: cell-based
# T4 construct: endogenous in cells
# Protocol: as §2
compound,measurement,setting,value
"O=C(O)c1ccc(/C=C2\SC(=S)N(c3cccc(C(F)(F)F)c3)C2=O)cc1 [CFTR172, reference compound]",effect on D4 activation of iodide efflux through F508-CFTR,ΔF508-CFTR [1]; simultaneous addition with D4,reduces the activation
"CC(=O)Nc1c(O)cccc1Oc1ccccc1C(=O)O [Compound 1B, 2-(2-acetamido-3-hydroxyphenoxy)benzoic acid]",iodide efflux from ΔF508-CFTR epithelial cells,ΔF508-CFTR [1],stimulates iodide efflux
"CC(=O)Nc1c(O)cc(O)cc1Oc1ccc(N)cc1C(=O)O [Compound 1D, 2-(2-acetamido-3,5-dihydroxyphenoxy)-5-aminobenzoic acid]",iodide efflux from ΔF508-CFTR epithelial cells,ΔF508-CFTR [1],stimulated a sudden burst of iodide efflux
same,iodide efflux from ΔF508-CFTR epithelial cells,ΔF508-CFTR [1]; listed as D4,channels immediately open
same,transepithelial resistance of ΔF508-CFTR epithelial cells over a longer time period,[2]; 100 μM,increase in transepithelial resistance; also recorded: long lasting rescue of ΔF508-CFTR
same,transepithelial resistance of epithelial cells containing F508-CFTR,"[2]; FIG. 10, compared to 8-Bromo-cAMP and control",resistance increases
same,TER of F508-CFTR cells over a period of 90 hours,"[2]; FIG. 12, versus control without any treatment",drops below the control
same,"transepithelial resistance of epithelial cells containing normal CFTR, immediate effect",[3]; FIG. 10,drops immediately
same,TER of normal cells over a period of 90 hours,[3]; FIG. 12,reduce the TER
same,activation of hyaluronan export from human fibroblasts,hyaluronan exporter MRP5,most active; also recorded: most activating
same,toxicity (Alamarblue assay),[4],not toxic
same,expression of wildtype CFTR on the cell surface (Western blotting),wildtype CFTR,slightly decreased
same,transepithelial nasal resistance,"nasal epithelium; 100 μM in isotonic NaCl, 2 mM CaCl2, after a transient increase",decreased below the equilibrating solution
same,reversibility of the effect on transepithelial nasal resistance,nasal epithelium; wash out,reversible
same,concentration at which increase of membrane expression on ΔF508-CFTR epithelial cells was observed,ΔF508-CFTR [5]; Western blotting,100 µM
same,expression of ΔF508-CFTR on the cell surface / plasma membrane (Western blotting),"ΔF508-CFTR [5]; human epithelial cells, increasing concentration of compound",recruited to the plasma membrane; also recorded: enhanced; also recorded: restored plasma membrane expression
same,hyaluronan export through CFTR,CFTR,activated
"N=C(N)NC(=O)c1nc(Cl)c(N)nc1N [amiloride, reference compound]",transepithelial nasal resistance,"nasal epithelium; 10 μM in isotonic NaCl, 2 mM CaCl2",increased to a maximal valued
"CC(C)NCC(O)c1ccc(O)c(O)c1 (stereo not shown) [isoprenalol, reference compound]",transepithelial nasal resistance,"nasal epithelium; 10 μM in low salt 0.09% NaCl, 0.2 mM CaCl2",maximal drop of the transepithelial resistance
